Data taken from publication PMC5653858, “A single extracellular amino acid in Free Fatty Acid Receptor 2 defines antagonist species selectivity and G protein selection bias” (Scientific Reports, 2017).
Positions count from the first letter of the chain named.

Assays:
[1] = target: T1, Lys^65Glu hFFA2 (Homo sapiens, UniProt O15552, K65E); test: HTRF cAMP inhibition assay, Lys65Glu hFFA2; type: cell-based; details: inhibition of 1 μM forskolin-induced cAMP, K65E hFFA2
T1 construct: NanoLuc Luciferase (N); eYFP; expressed in transfected cells; host or cells: Flp-In T-REx HEK293, doxycycline-induced
T1 sequence (O15552 1-330 K65E): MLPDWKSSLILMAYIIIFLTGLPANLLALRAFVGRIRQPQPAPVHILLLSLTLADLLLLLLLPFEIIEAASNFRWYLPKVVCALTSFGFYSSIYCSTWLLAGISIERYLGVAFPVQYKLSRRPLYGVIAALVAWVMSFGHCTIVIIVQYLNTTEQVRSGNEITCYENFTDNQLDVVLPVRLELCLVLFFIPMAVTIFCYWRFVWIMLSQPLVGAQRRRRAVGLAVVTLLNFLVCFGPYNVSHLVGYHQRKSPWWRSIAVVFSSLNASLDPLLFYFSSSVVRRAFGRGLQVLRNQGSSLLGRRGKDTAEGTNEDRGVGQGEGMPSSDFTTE
Protocol: (§1) All cAMP and inositol monophosphate experiments were performed using Flp-In T-REx HEK293 cells induced to express the receptor of interest. Experiments were carried out using respective homogenous time-resolved FRET-based detection kits (CisBio Bioassays; CisBio, Codolet, France) according to the manufacturer’s protocol. For the cAMP inhibition assay cells were plated at 2000 cells/well in low-volume 384-well plates. The ability of agonists to inhibit 1 μM forskolin-induced cAMP production was assessed following a co-incubation for 30 min with agonist compounds. For the inositol monophosphate accumulation assay cells were plated at 7500 cells/well in low-volume 384-well plates and incubated for 2 h at 37 °C with test compounds. To assess ability of antagonists to inhibit agonist responses, cells were pre-incubated with antagonist compounds for 30 min at 37 °C prior to addition of an EC80 concentration of agonist. Respective reactions were stopped according to the manufacturer’s instructions and the output was measured by with a PHERAstar FS plate reader (BMGLabtech, Aylesbury, UK).

[2] = target: T2, Lys^65Ala hFFA2 (Homo sapiens, UniProt O15552, K65A); test: HTRF cAMP inhibition assay, Lys65Ala hFFA2; type: cell-based; parameters: NanoLuc Luciferase (N); eYFP; expressed in transfected cells; host or cells: Flp-In T-REx HEK293, doxycycline-induced; details: inhibition of 1 μM forskolin-induced cAMP, K65A hFFA2
T2 sequence (O15552 1-330 K65A): T1 sequence (O15552 1-330 K65E) with E65A
Protocol: as §1

[3] = target: T1, Lys^65Glu hFFA2; test: [35S]GTPγS incorporation assay, Lys65Glu hFFA2; type: biochemical; details: membranes
Protocol: (§2) Initially, 5 μg of generated membrane protein was pre-incubated for 15 min at 25 °C in assay buffer (50 mM Tris-HCl, 10 mM MgCl2; 100 mM NaCl; 1 mM EDTA; 1 μM GDP; 0.1% fatty acid-free bovine serum albumin; pH 7.4) containing the indicated ligand concentrations. […] Unbound radioligand was removed from filters by three washes with ice-cold wash buffer (50 mM Tris-HCl, 10 mM MgCl2; pH 7.4) and filters were dried for 2–3 h at room temperature. Dried filters were added to 3 mL of Ultima Gold^TM XR (PerkinElmer Life Sciences, Beaconsfield, UK) and [^35S]GTPγS binding was determined by liquid scintillation spectrometry.

[4] = target: T3, Lys^65Arg hFFA2 (Homo sapiens, UniProt O15552, K65R); test: HTRF cAMP inhibition assay, Lys65Arg hFFA2; type: cell-based; details: inhibition of 1 μM forskolin-induced cAMP
T3 construct: NanoLuc Luciferase (N); eYFP; expressed in transfected cells; host or cells: Flp-In T-REx HEK293, doxycycline-induced
T3 sequence (O15552 1-330 K65R): T1 sequence (O15552 1-330 K65E) with E65R
Protocol: as §1

[5] = target: T4, hFFA2 (Homo sapiens, UniProt O15552); test: inositol monophosphate accumulation assay, wild type hFFA2; type: cell-based; parameters: expressed in transfected cells; details: wild type hFFA2
T4 sequence (O15552 1-330): T1 sequence (O15552 1-330 K65E) with E65K
Protocol: as §1

[6] = target: T4, hFFA2; test: [35S]GTPγS incorporation assay, wild type hFFA2; type: biochemical; parameters: HA-tag (C); expressed in transfected cells; host or cells: HEK293, parental and CRISPR/Cas9 G protein-deleted lines, transient transfection; details: membranes
Protocol: as §2

[7] = target: T2, Lys^65Ala hFFA2; test: inositol monophosphate accumulation assay, Lys65Ala hFFA2; type: cell-based; parameters: NanoLuc Luciferase (N); eYFP; expressed in transfected cells; host or cells: Flp-In T-REx HEK293, doxycycline-induced
Protocol: as §1

[8] = target: T3, Lys^65Arg hFFA2; test: inositol monophosphate accumulation assay, Lys65Arg hFFA2; type: cell-based
Protocol: as §1

[9] = target: T2, Lys^65Ala hFFA2; test: [35S]GTPγS incorporation assay, Lys65Ala hFFA2; type: biochemical; parameters: NanoLuc Luciferase (N); eYFP; expressed in transfected cells; host or cells: Flp-In T-REx HEK293, doxycycline-induced; details: membranes
Protocol: as §2

[10] = target: T4, hFFA2; test: HTRF cAMP inhibition assay, wild type hFFA2; type: cell-based; parameters: expressed in transfected cells; details: inhibition of 1 μM forskolin-induced cAMP
Protocol: as §1

[11] = target: T1, Lys^65Glu hFFA2; test: inositol monophosphate accumulation assay, Lys65Glu hFFA2; type: cell-based
Protocol: as §1

[12] = target: T3, Lys^65Arg hFFA2; test: [35S]GTPγS incorporation assay, Lys65Arg hFFA2; type: biochemical; details: membranes
Protocol: as §2

pEC50 cAMP, K65E [1]: 6.45 ± 0.15
pEC50 cAMP, K65A [2]: 6.42 ± 0.03
pEC50 GTPγS, K65E [3]: 6.79 ± 0.12
pEC50 cAMP, K65R [4]: 6.47 ± 0.15
pEC50 GTPγS, WT [6]: 6.97 ± 0.02
pEC50 GTPγS, K65A [9]: 6.94 ± 0.14
pEC50 cAMP, WT [10]: 6.35 ± 0.13
pEC50 GTPγS, K65R [12]: 6.79 ± 0.07
Compound: Cc1nc(NC(=N)N)sc1-c1cccc(NC(=O)c2ccc(F)cc2)c1 [AZ1729, N-[3-(2-carbamimidamido-4-methyl-1,3-thiazol-5-yl)phenyl]-4-fluoro benzamide]
accumulation of inositol monophosphates via hFFA2 [5]: unable to promote accumulation of inositol monophosphates
inositol monophosphate production via Lys65Ala hFFA2 [7]: unable to promote inositol monophosphate production
inositol monophosphate production via Lys65Arg hFFA2 [8]: unable to promote inositol monophosphate production
inositol monophosphate production via Lys65Glu hFFA2 [11]: unable to promote inositol monophosphate production
